# Results reported in patent US20230220047A1, “PEPTIDES FOR TREATMENT OF SEPSIS AND CANCER” (NORWEGIAN UNIVERSITY OF SCIENCE AND TECHNOLOGY (NTNU), priority 2020, published 2023).
# Experiments:
# [1] = system: TLR8; experiment: Primary human macrophages stimulated with CL075: cytokine mRNA, Western blot, IRAK precipitations; type: cell-based; conditions: CL075-treated primary human macrophages
# Method: (§1) Primary human macrophages (PBMC derived, differentiated in media with 10% human serum and M-CSF 20 ng/ml, 7 days) were stimulated with K12 LPS (100 ng/ml), FSL-1 (100 ng/ml) or CL075 (3 μg/ml). […] (B) qPCR for mRNA expression of IFNβ, IL-6, TNF and IL-1β, average for three biological replicates, error bars ±SD.
# (§2) Primary human macrophages (7 days) were pre-treated with Pen or P7-Pen (15 μM) for 30 min before addition of LPS (100 ng/ml), FSL-1 (100 ng/ml) or CL075 (3 μg/ml). A: Protein expression in lysates for input control. B,C: Precipitations were performed using sheep anti-IRAK4 (B) or anti-IRAK1 (C) polyclonal antibodies covalently bound to magnetic beads.
# [2] = system: TLR2; experiment: Primary human macrophages stimulated with FSL-1: cytokine mRNA, Western blot, IRAK precipitations; type: cell-based
# Method: as §1, §2
# (§3) The effect of P7-Pen on TLR2-mediated pro-inflammatory cytokine expression was investigated.
# [3] = target: T1, SLAMF1-TRAM interaction (Homo sapiens, UniProt Q86XR7); experiment: Co-precipitation of SLAMF1 and TRAM^Flag in the presence of ECFP-tagged peptides; type: binding; conditions: N-terminal ECFP-tagged peptides, HEK-293T lysates, anti-Flag IP
# T1 construct: expressed in transfected cells; host or cells: HEK-293T
# Excerpt: (A) Western blot analysis of SLAMF1 and TRAM^Flag co-precipitated in the presence of CFP-tagged peptides. TRAM^Flag was precipitated from cell lysates on agarose beads and distributed across 15 tubes. […] Unbound proteins/peptides were removed by a washing step, and pecipitates analysed by WB (anti-Flag IPs). Reduced SLAMF1 binding to TRAM indicates inhibition of the TRAM/SLAMF1 interaction by the peptide. (B) Sequences of the peptides that were expressed as ECFP-tagged proteins (N-terminal ECFP). Peptides 4 and 5 are not shown and were not pursued.
# HEK293T cells expressing Flag-tagged proteins were lysed using 1×lysis buffer (150 mM NaCl, 50 mM TrisHCl (pH 8.0), 1 mM EDTA, 1% NP40), supplemented with EDTA-free Complete Mini protease Inhibitor Cocktail Tablets and PhosSTOP phosphatase inhibitor cocktail from Roche, 50 mM NaF and 2 mM […] (Sigma). IPs were carried out by rotation of cell lysates at 4° C. for 2 h with anti-flag (M2) agarose (Sigma). Beads were washed 5 times with lysis buffer and heated for 5 min with 1×NuPAGE® LDS Sample Buffer (Thermo Fisher Scientific) before analysis of precipitates by Western blotting. […]
# Inhibition of the TRAM-SLAMF1 interaction using SLAMF1-derived peptides was tested. For the first line of experiments, SLAMF1-derived peptides were co-expressed as N-terminal ECFP-tagged proteins together with SLAMF1 and TRAM^FLAG constructs in HEK-293T cells.
# [4] = system: TLR4; experiment: Primary human macrophages stimulated with LPS: cytokine mRNA and p38 MAPK phosphorylation; type: cell-based; conditions: LPS-treated primary human macrophages
# Method: as §1, §3
# [5] = system: TLR4; experiment: Western blot of LPS signalling in murine immortalized BMDMs; type: cell-based, mouse; conditions: murine macrophages, 10 μM, LPS
# Method: Western blot analysis of lysates from cells pretreated with media containing controls (water, DMSO or 10 μM control peptide C3-Pen) or P7-Pen peptide for 30 min before stimulation with LPS (K12 LPS, 100 ng/ml) for designated time periods.
# Protein pellets were dissolved by heating protein pellets for 10 min at 95° C. in buffer containing 4 M urea, 1 SDS (Sigma) and NuPAGE® LDS Sample Buffer (4×) (Thermo Fisher Scientific). Otherwise, lysates were made using 1× RIPA lysis buffer (150 mM NaCl, 50 mM TrisHCl (pH 7.5), 1% Triton X100, 5 mM EDTA, protease inhibitors, phosphatase inhibitors). For Western blot analysis we used pre-cast protein gels NuPAGE™ Novex™ and iBlot Transfer Stacks iBlot Gel Transfer Device (Thermo Fisher Scientific). Proteins were transferred to the membrane by dry-blotting using iBlot® 2 NC Regular/Mini Stacks (Life Technologies) in the iBlot 2 Dry Blotting System (Life Technologies). After secondary antibody incubation, membranes were washed and incubated with HRP substrate solution (SuperSignal™ West Femto Maximum Sensitivity Substrate (Thermo Fisher Scientific)). Images were taken using Odyssey® Fc (LI-CORE). Quantification graphs were generated by the analysis of signal intensities for protein bands (protein of interest and endogenous loading control—β-tubulin from the same membrane) using Odyssey software (LI-CORE). Data were normalised to the expression levels of β-tubulin and presented as a relative fold change to the control sample.
# In addition, pre-treatment of murine macrophages with P7-Pen inhibited LPS-mediated phosphorylation of TBK1 and IκBα, and decreased phosphorylation of p38 MAPK (FIG. 23).
# [6] = target: T2, SLAMF1 (Homo sapiens, UniProt Q13291); experiment: Co-precipitation of SLAMF1 with peptide; type: binding; conditions: data not shown
# T2 sequence (Q13291 21-335): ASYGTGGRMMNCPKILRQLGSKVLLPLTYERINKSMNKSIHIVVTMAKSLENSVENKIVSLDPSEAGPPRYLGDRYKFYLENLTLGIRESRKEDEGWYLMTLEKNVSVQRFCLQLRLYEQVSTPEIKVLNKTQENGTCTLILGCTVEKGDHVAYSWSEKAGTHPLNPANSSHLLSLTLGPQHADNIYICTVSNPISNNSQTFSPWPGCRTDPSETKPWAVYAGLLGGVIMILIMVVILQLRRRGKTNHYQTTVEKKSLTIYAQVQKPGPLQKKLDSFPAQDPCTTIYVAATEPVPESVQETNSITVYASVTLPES
# Excerpt: The striking effect of the P7 peptide on bacterial uptake could explain the blockade of TLR4-mediated IFNβ secretion by this peptide, because activation of IFNβ expression can only be initiated from the endosomal compartment. This effect could also be mediated by peptide interaction with Rab11 FIP2 (data not shown), which is a crucial regulator of TRAM trafficking and the uptake of both Gram-negative and Gram-positive bacteria by macrophages (Skjesol, supra). […] P7 is derived from a C-terminal β-sheet, and so could complex with the SLAMF1 N-terminal beta sheet. Given the effect of P7-Pen on bacterial uptake, it could be used to block bacterial uptake by monocytes, thus making bacteria more exposed to antibiotic treatment.
# T1 sequence (Q86XR7 whole entry): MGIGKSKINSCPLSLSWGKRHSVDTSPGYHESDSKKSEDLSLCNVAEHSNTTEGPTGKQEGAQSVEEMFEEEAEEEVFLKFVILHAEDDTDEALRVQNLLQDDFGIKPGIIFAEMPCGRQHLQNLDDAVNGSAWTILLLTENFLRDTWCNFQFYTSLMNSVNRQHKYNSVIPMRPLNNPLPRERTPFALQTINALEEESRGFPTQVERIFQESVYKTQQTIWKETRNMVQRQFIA
substance,measurement,setting,value
P7: SEQ ID NO: 1; amino acids 324-333 of SLAMF1 with a proline to threonine substitution at position 10 (ITVYASVTLT; P7) [Peptide P7],"phosphorylation of p38 MAPK and IL-6, TNF and IL-1β expression",[1],not
same,"phosphorylation of p38 MAPK and IL-6, TNF and IL-1β expression",[2]; FSL-1-treated primary human macrophages,not
same,"phosphorylation of p38 MAPK, posttranslational modifications of IRAK1, recruitment of IRAK1 and 4 to MyD88","[2]; TLR2-stimulated cells, 15 μM, FSL-1 100 ng/ml",does not inhibit
same,inhibitory effect on SLAMF1-TRAM co-precipitation,[3],highest efficacy
same,"phosphorylation of p38 MAPK and IL-6, TNF and IL-1β expression",[4],fully inhibited
same,phosphorylation of TAK1 kinase and IRAK1 ubiquitination/phosphorylation,[5],interfered
same,co-precipitation of SLAMF1,[6],could also co-precipitate
